Converted amounts (≈) assume the structure as drawn. Like-named read-outs stand apart in the source and are kept apart here.
Legend:
[1] = system: Klebsiella pneumoniae ATCC 10031; test: Antibacterial activity, agar dilution method (MIC); assay type: cell-based
Text: (§1) The antibacterial activity as determined by the agar dilution method using a medium prepared by dissolving 3 g of Bacto-Tryptone (a product of Difco Laboratories), 3 g of a meat extract, 1 g of an yeast extract, 1 g of glucose and 16 g of agar in one liter of water (pH 7).
KP: Klebsiella pneumoniae ATCC 10031

[2] = system: Staphylococcus aureus ATCC 6538P; test: Antibacterial activity, agar dilution method (MIC); assay type: cell-based; conditions: ATCC6538P
Text: as §1
SA: Staphylococcus aureus ATCC 6538P

[3] = system: Enterococcus faecium ATCC 10541; test: Antibacterial activity, agar dilution method (MIC); assay type: cell-based
Text: as §1
EF: Enterococcus faecium ATCC 10541

[4] = system: P388 Leukemia; test: Antitumor activity against P388 leukemia in mice (increased life span); assay type: in vivo, CDF1 mice; conditions: Mus musculus, P388, ip, 720 h
Procedure: Ascites were collected from the abdominal cavity of P388 ascites tumor-bearing cancer mice (DBA/2) on the 7th day after transplantation. A number of P388 cells in the ascites was counted, and a tumor cell floating liquid of 5×10^6 cells/ml was prepared using a physiological saline solution. Then, 0.2 ml of the solution containing 1×10^6 cells was transplanted into the abdominal cavity of CDF1 mice having a body weight of from 20 to 25 g.
The effect of the test compound was determined in terms of the ratio of average survival days of the group administered with the test compound to average survival days of the control group (non-medicated group) (i.e., an increased life span, ILS%).

[5] = system: Bacillus subtilis No. 10707; test: Antibacterial activity, agar dilution method (MIC); assay type: cell-based
Text: as §1
BS: Bacillus subtilis No. 10707

[6] = system: Escherichia coli ATCC 26; test: Antibacterial activity, agar dilution method (MIC); assay type: cell-based; conditions: Escherichia coli, ATCC26, pH 7, read-out: MIC (minimum growth inhibitory concentration), EC: Escherichia coli ATCC 26
Text: as §1
EC: Escherichia coli ATCC 26

[7] = Klebsiella pneumoniae, ATCC10031, pH 7, read-out: MIC (minimum growth inhibitory concentration)
[8] = Staphylococcus aureus, pH 7, read-out: MIC (minimum growth inhibitory concentration)
[9] = Enterococcus faecium, ATCC10541, pH 7, read-out: MIC (minimum growth inhibitory concentration), EF: Enterococcus faecium ATCC 10541
[10] = read-out: ILS (increased life span)
[11] = Bacillus subtilis, NO.10707, pH 7, read-out: MIC (minimum growth inhibitory concentration), BS: Bacillus subtilis No. 10707
[12] = ATCC10031, KP: Klebsiella pneumoniae ATCC 10031, agar dilution, pH 7, read-out: MIC (minimum growth inhibitory concentration)
[13] = SA: Staphylococcus aureus ATCC 6538P, agar dilution, pH 7, read-out: MIC (minimum growth inhibitory concentration)
[14] = ATCC10541, EF: Enterococcus faecium ATCC 10541, pH 7, read-out: MIC (minimum growth inhibitory concentration)
[15] = single i.p. 24 hours after transplantation, CDF1 mice, 30 days observation
[16] = BS: Bacillus subtilis No. 10707, pH 7, read-out: MIC (minimum growth inhibitory concentration)

## CC1=CC(OC(=O)CNC(=O)CN(C)C(=O)OCc2ccccc2)C(=O)C=CC=Cc2csc(n2)C(C)N2C(=O)CC(C(C)(O)C(=O)SCc3oc(=O)oc3C)(CC1)[S+]2[O-] (stereo not drawn) [Compound 172]
[1]; [7]
  MIC: 1 µg/mL (≈ 1.13 µM)
[2]; [8]
  MIC: 2.1 µg/mL (≈ 2.37 µM)
[3]; [9]
  MIC: 1 µg/mL (≈ 1.13 µM)
[4]; [10]
  ILS at 4 mg/kg: 65%
[5]; [11]
  MIC: 1 µg/mL (≈ 1.13 µM)

## CC1=CC(OC(=O)CNC(=O)CNC(=O)c2ccccc2)C(=O)C=CC=Cc2csc(n2)C(C)N2C(=O)CC(C(C)(O)C(=O)SCc3oc(=O)oc3C)(CC1)[S+]2[O-] (stereo not drawn) [Compound 167]
[1]; [12]
  MIC: 2.1 µg/mL (≈ 2.5 µM)
[2]; [13]
  MIC: 2.1 µg/mL (≈ 2.5 µM)
[3]; [14]
  MIC: 2.1 µg/mL (≈ 2.5 µM)
[4]; [15]
  ILS at 16 mg/kg: 90%
[5]; [16]
  MIC: 2.1 µg/mL (≈ 2.5 µM)

## COC1(OC2C=C(C)CCC3(C(C)(O)C(=O)SCc4oc(=O)oc4C)CC(=O)N(C(C)c4nc(cs4)C=CC=CC2=O)[S+]3[O-])CCCCC1 (stereo not drawn) [Compound 126]
[1]; [12]
  MIC: 4.2 µg/mL (≈ 5.71 µM)
[2]; [13]
  MIC: 1 µg/mL (≈ 1.36 µM)
[3]; [14]
  MIC: 1 µg/mL (≈ 1.36 µM)
[5]; [16]
  MIC: 0.033 µg/mL (≈ 0.0449 µM)

## C/C1=C\C(OC(=O)OCC2c3ccccc3-c3ccccc32)C(=O)/C=C/C=C\c2csc(n2)C(C)NC(=O)CC2(CC1)[S+]([O-])SC(=O)C2(C)O (stereo not drawn) [Compound 15]
[2]; [13]
  MIC: 0.16 µg/mL (≈ 0.218 µM)
[3]; [14]
  MIC: 0.081 µg/mL (≈ 0.111 µM)
[4]; [15]
  ILS at 16 mg/kg: 63%
[5]; [16]
  MIC: 0.041 µg/mL (≈ 0.0559 µM)

## C/C1=C\C(OCOCc2ccccc2)C(=O)/C=C/C=C\c2csc(n2)C(C)N2C(=O)CC(C(C)(O)C(=O)SCc3oc(=O)oc3C)(CC1)[S+]2[O-] (stereo not drawn) [Compound 61]
[2]; [8]
  MIC: 0.65 µg/mL (≈ 0.875 µM)
[3]; [9]
  MIC: 0.65 µg/mL (≈ 0.875 µM)
[6]
  MIC: 2.6 µg/mL (≈ 3.5 µM)
[5]; [11]
  MIC: 0.081 µg/mL (≈ 0.109 µM)

## CCCCCCCC(=O)OCSC(=O)C(C)(O)C12CC/C(C)=C/C(O)C(=O)/C=C/C=C\c3csc(n3)C(C)N(C(=O)C1)[S+]2[O-] (stereo not drawn) [Compound 84]
[1]; [12]
  MIC: 0.098 µg/mL (≈ 0.147 µM)
[2]; [13]
  MIC: 0.39 µg/mL (≈ 0.585 µM)
[3]; [14]
  MIC: 0.39 µg/mL (≈ 0.585 µM)
[5]; [16]
  MIC: 0.049 µg/mL (≈ 0.0735 µM)

## C/C1=C\C(O)C(=O)/C=C/C=C\c2csc(n2)C(C)N2C(=O)CC(C(C)(O)C(=O)SCOC(=O)C3CCC3)(CC1)[S+]2[O-] (stereo not drawn) [Compound 78]
[1]; [7]
  MIC: 2.3 µg/mL (≈ 3.69 µM)
[2]; [8]
  MIC: 4.7 µg/mL (≈ 7.55 µM)
[3]; [9]
  MIC: 9.4 µg/mL (≈ 15.1 µM)
[5]; [11]
  MIC: 0.073 µg/mL (≈ 0.117 µM)

## C/C1=C\C(OC(=O)OCC(C)C)C(=O)/C=C/C=C\c2csc(n2)C(C)N2C(=O)CC(C(C)(O)C(=O)SCc3oc(=O)oc3C)(CC1)[S+]2[O-] (stereo not drawn) [Compound 54]
[2]; [8]
  MIC: 0.13 µg/mL (≈ 0.18 µM)
[3]; [9]
  MIC: 0.13 µg/mL (≈ 0.18 µM)
[4]; [10]
  ILS at 2 mg/kg: 42%
[6]
  MIC: 0.018 µg/mL (≈ 0.0249 µM)

## COC1(OC2C=C(C)CCC3(C(C)(O)C(=O)SCc4oc(=O)oc4C)CC(=O)N(C(C)c4nc(cs4)C=CC=CC2=O)[S+]3[O-])CCSCC1 (stereo not drawn) [Compound 127]
[1]; [12]
  MIC: 2.6 µg/mL (≈ 3.45 µM)
[2]; [13]
  MIC: 0.65 µg/mL (≈ 0.863 µM)
[3]; [14]
  MIC: 0.65 µg/mL (≈ 0.863 µM)
[4]; [15]
  ILS at 16 mg/kg: 52%
[5]; [16]
  MIC: 0.041 µg/mL (≈ 0.0545 µM)

## C/C1=C\C(O)C(=O)/C=C/C=C\c2csc(n2)C(C)N2C(=O)CC(C(C)(O)C(=O)SCOC(=O)C3CCCCC3)(CC1)[S+]2[O-] (stereo not drawn) [Compound 80]
[2]; [8]
  MIC: 2.6 µg/mL (≈ 3.99 µM)
[3]; [9]
  MIC: 5.2 µg/mL (≈ 7.99 µM)
[5]; [11]
  MIC: 0.041 µg/mL (≈ 0.063 µM)

## COC(C)(C)OC1/C=C(\C)CCC2(C(C)(O)C(=O)SCc3oc(=O)oc3C)CC(=O)N(C(C)c3nc(cs3)/C=C\C=C\C1=O)[S+]2[O-] (stereo not drawn) [Compound 121]
[1]; [12]
  MIC: 0.39 µg/mL (≈ 0.561 µM)
[2]; [13]
  MIC: 0.78 µg/mL (≈ 1.12 µM)
[3]; [14]
  MIC: 0.78 µg/mL (≈ 1.12 µM)
[5]; [16]
  MIC: 0.26 µg/mL (≈ 0.374 µM)

## CC(=O)OC1/C=C(\C)CCC2(CC(=O)NC(C)c3nc(cs3)/C=C\C=C\C1=O)[S+]([O-])SC(=O)C2(C)O (stereo not drawn) [Compound 1]
[1]; [12]
  MIC: 17 µg/mL (≈ 30.8 µM)
[2]; [13]
  MIC: 0.52 µg/mL (≈ 0.941 µM)
[3]; [14]
  MIC: 0.52 µg/mL (≈ 0.941 µM)
[5]; [16]
  MIC: 0.26 µg/mL (≈ 0.47 µM)

## CC1=CC(OC(=O)CN(C)C(=O)CCNC(=O)OCc2ccccc2)C(=O)C=CC=Cc2csc(n2)C(C)N2C(=O)CC(C(C)(O)C(=O)SCc3oc(=O)oc3C)(CC1)[S+]2[O-] (stereo not drawn) [Compound 175]
[4]; [15]
  ILS at 16 mg/kg: 65%

## C/C1=C\C(OC(=O)[C@H](C)NC(=O)OC(C)(C)C)C(=O)/C=C/C=C\c2csc(n2)C(C)NC(=O)CC2(CC1)[S+]([O-])SC(=O)C2(C)O (stereo partly drawn) [Compound 102]
[4]; 4.0 mg/kg, single i.p. 24 hours after transplantation, CDF1 mice, 30 days observation, read-out: ILS (increased life span)
  ILS at 4 mg/kg: 49%

## CCOC(=O)OC1/C=C(\C)CCC2(C(C)(O)C(=O)SCc3oc(=O)oc3C)CC(=O)N(C(C)c3nc(cs3)/C=C\C=C\C1=O)[S+]2[O-] (stereo not drawn) [Compound 53]
[4]; 2.0 mg/kg, single i.p. 24 hours after transplantation, CDF1 mice, 30 days observation, read-out: ILS (increased life span)
  ILS at 2 mg/kg: 43%

## COC1(OC2/C=C(\C)CCC3(CC(=O)NC(C)c4nc(cs4)/C=C\C=C\C2=O)[S+]([O-])SC(=O)C3(C)O)CCSCC1 (stereo not drawn) [Compound 92]
[4]; 8.0 mg/kg, single i.p. 24 hours after transplantation, CDF1 mice, 30 days observation, read-out: ILS (increased life span)
  ILS at 8 mg/kg: 48%

Reference: patent publication US5733924A, “DC 107 derivatives and treatment methods” (Kyowa Hakko Kogyo Co., Ltd., priority 1995, dated 1998)
